Data taken from a melting point compilation (Tetko et al.; mined from patent text by program, amines drawn as free bases though some values may be those of a salt).

| Compound | melting point [°C] |
| --- | --- |
| C=CCN(NC(=O)c1ccc(Cl)c(S(N)(=O)=O)c1)c1ccccc1 | 99 to 101 |
| O=C(O)C1=Cc2ccc(Cl)c(Cl)c2OC1C(F)(F)F (configuration not stated) | 220 to 221 |
| Cc1ccc(S(=O)(=O)c2ccc(Cl)c(NC(=O)N[C@@H](Cc3ccc(NC(=O)c4c(Cl)cccc4Cl)cc3)C(=O)O)c2)cc1 | 241 |
| O=Cc1ccc(O)c(NC(=O)CCl)c1 | 190 to 192 |
| CC(C)N(CCCNC(=O)Cn1ncc(-c2ccccc2)c1-c1ccccc1)C(C)C | 83 to 84 |
| COc1ccc(C=O)cc1OCc1nc(-c2ccccc2)oc1C | 121 to 122 |
| CCOc1ccc(Cc2cn(C3OC(COC(C)=O)C(OC(C)=O)C(OC(C)=O)C3OC(C)=O)c3cccc(Cl)c23)cc1 (configuration not stated) | 166 to 169 |
| CC(=O)Nc1nc(CCc2ccc(NC(=O)OC(C)(C)C)cc2)c(C(=O)NCc2ccc(S(C)(=O)=O)cc2)s1 | 192 to 193 |
| COCC1CN(c2ccc(OCCCC3(C)OC(COS(=O)(=O)c4ccc(C)cc4)C(COS(=O)(=O)c4ccc(C)cc4)O3)cc2)C(=O)O1 (configuration not stated) | 104 |
| CC1=C(C(=O)NC(C)(C)C)C(c2ccccc2Br)C(C(=O)OC(C)C)=C(COCCn2c(C)nc3cnccc32)N1 (configuration not stated) | 160 to 165 |
| CN1CCC(=C2c3cc(CO)n(C)c3CCn3ccnc32)CC1 | 214 |
| O=C(c1ccc(F)cc1)C1(n2cncn2)CC1 | 73 to 75 |
| O=C1O[C@H](O)[C@@H]2[C@H]1[C@@H]1C=C[C@H]2C1 | 133 |
| Nc1ncc(Oc2ccc(Cl)cc2)c(N2CCNCC2)n1 | 93 to 95 |
| CC(/C=C/C1=C(c2ccc3c(c2)C(C)(C)CCC3(C)C)CCCC1)=C\C(=O)O | 198 to 199 |
| O=C(O)CCCc1cc2nc(Cl)ccc2n1S(=O)(=O)c1ccc(-c2cnco2)cc1 | 169 to 176 |
| COC(=O)C=C1CN=C(c2ccccc2Cl)c2cc(Cl)ccc2N1 | 154 to 158 |
| OC1CCc2oc3c(Cl)cc(Br)cc3c2C1 (single isomer, unassigned; (-)) | 236 to 240 |
| N#CCc1cccc(-c2ccc(OCCCC(=O)NO)cc2)c1 | 140 to 144 |
| CC(C)(C)CC(=O)Nc1ccc2ncnc(N)c2c1 | 273 to 274 |
| Cc1nc(N2CCc3ccccc3CC2)c(C#N)c(=O)n1CCN(C)C | 134 to 139 |

| Compound | melting point [°C] |
| --- | --- |
| COc1cc(N)c(Cl)cc1C(=O)NCC1CCN(CCCCCN)CC1 | 60 to 63 |
| COC(=O)C(CC(=O)O)Cc1ccc(OC)c(OC)c1 (configuration not stated) | 104 to 107 |
| CCOC(=O)N1CC[C@@H]2CC(=O)c3cc([N+](=O)[O-])ccc3C[C@H]2C1 (relative stereo) | 112 to 114 |
| O=C(c1ccccc1)c1ncc2n1CCC2C(=O)O (configuration not stated) | 232 to 233 |
| Cn1nnc2ccc(C(c3ccc(Cl)cc3)n3cncn3)cc21 (configuration not stated) | 130 to 135 |
| O=C(O)Cc1c(C(=O)O)c2cc(Oc3ccc(Cl)cc3)ccc2n1-c1ccc(N2CCCCC2)cc1 | 183 to 187 |
| COC(=O)C(CCSC)NC(=O)c1ccc(NCC2CC(O[Si](C)(C)C(C)(C)C)CN2C(=O)OC(C)(C)C)cc1-c1ccccc1 (configuration not stated) | 48 |
| COc1ccc(-c2cc(=O)n(Cc3ccc(F)c(F)c3)nc2-c2ccc(OC)cc2)cc1 | 155 to 156 |
| O=C(NCc1ccn(C2=CC3=C(CC2)CCc2[nH]c(=O)c(=O)n(O)c23)c1)Nc1ccc(C(=O)O)cc1 | > 300 |
| COc1ccc(Oc2ccccc2Cl)cc1C=O | 65 to 66 |
| CCc1nc2c(N)nc3cc(CCNS(C)(=O)=O)ccc3c2n1CC(C)(C)O | 149 to 152 |
| N#CCn1cc(-c2ccccc2)c(=O)c(-c2ccccc2)c1 | 221 to 224 |
| C[Si](C)(C)Oc1ccc(SSc2ccc(O[Si](C)(C)C)cc2)cc1 | 21 to 22 |
| NC(=O)c1ccc2c(c1)CCCN2CCN1CC=C(c2c[nH]c3cc(F)ccc23)CC1 | 130 to 133 |
| CCOC(=O)c1nc(N)sc1C(C)=O | 162 to 164 |
| CC(C)(C)NC(=O)c1ccc(S(=O)(=O)Cl)cc1 | 179 |
| OC(Nc1cccc(C(F)(F)F)c1)c1cccnc1 (configuration not stated) | 102 |
| CC(=O)Oc1cc2c(cc1C(C)(C)C)OC(C)(CCOc1ccc(CC3SC(=N)NC3=O)cc1)CC2 (configuration not stated) | 175 to 178 |
| CC(C)(C)NS(=O)(=O)c1cccs1 | 80 to 82 |
| O=[N+]([O-])c1cccc(CN2CCOCC2)c1 | 48 to 50 |
| O=[N+]([O-])c1ccc(Oc2ccc(C(F)(F)F)cc2Cl)nc1O | 87 to 93 |

| Compound | melting point [°C] |
| --- | --- |
| CCCCSCC(=O)c1ccc2[nH]c(=O)[nH]c2c1 | 211 to 213 |
| c1ccc2[nH]c(CN3CCN(c4nccs4)CC3)nc2c1 | 203 to 205 |
| O=C(Nc1cccc(O)c1)O[C@@H]1CN=C(c2ccccc2)O[C@H]1c1ccccc1 (racemic) | 170 |
| COC(=O)Cc1nc(-c2ccc(Cl)cc2)oc1-c1ccsc1 | 127 to 128 |
| CC(C)(C)OC(=O)N1CCN(CC(O)Cn2c3ccc(Br)cc3c3cc(Br)ccc32)CC1 (configuration not stated) | 90 to 95 |
| O=C1NCC(c2cn3c4c(cccc24)CCC3)=C1c1c[nH]c2ccccc12 | 260 to 262 |
| CC(=N)NS(=O)(=O)C=Cc1ccc(Cl)c(Cl)c1 | 198 |
| C=CCOc1ccc(C=Cc2ccc([N+](=O)[O-])cc2)cc1 | 114 |
| COC1CCN(c2cc3c(cc2C#Cc2ccccc2)NC(=O)CC(c2cccc(C#N)c2)=N3)CC1 | 250 to 251 |
| CCN1CCCC1CNC(=O)c1cc(S(=O)(=O)N(C)C)cc2c1OCCO2 (configuration not stated) | 146 to 148 |
| COCC(COC)Oc1cc(Oc2ccc(S(C)(=O)=O)nc2)cc2cc(C3=NCC(CCO)S3)[nH]c12 (configuration not stated) | 69 to 71 |
| ONC=Nc1ccc(N2CCSCC2)c(Cl)c1 | 137 to 138 |
| CSCCCn1c(C)c(C(=O)c2cccc(Cl)c2Cl)c2cccc(Br)c21 | 119 |
| CNC(=O)n1nc(Oc2ncc(C(F)(F)F)cc2Cl)c(Cl)c1C | 81 to 83 |
| Nc1ccc(OCC(=O)OCCOC(=O)COc2ccc(N)cc2)cc1 | 124 to 126 |
| O=C1N(Cc2ccc(F)cc2Cl)c2ccccc2C12COc1cc3c(cc12)OCO3 (configuration not stated) | 174 to 175 |
| CC(NC(=O)Cc1cc(F)cc(F)c1)C(=O)C1(N)N=C(N2CCCCC2)c2ccccc2N(C)C1=O (configuration not stated) | 154 to 160 |
| CS(=O)(=O)c1ccc([C@@H](CC2CCC(=O)CC2)C(=O)O)cc1Cl | 129 to 131 |
| COc1ccc(-c2nc(S(=O)(=O)c3ccc(Cl)cc3)[nH]c2-c2ccc(OC)cc2)cc1 | 187 to 188 |

The next lines start with the values.

| melting point [°C] | Compound |
| --- | --- |
| 148 to 149 | Cc1oc(C=Cc2ccccc2Cl)nc1CC(=O)O |
| 125 to 126 | COc1cccc2c1c1nc3ccccc3cc1n2C(C)=O |
| 232 | O=C(NC(=O)c1c(Cl)cccc1Cl)Nc1ccc(Cl)c(Cl)c1 |
| 157 to 160 | CCOC(=O)c1ccc(NC(=O)[C@H](CO)NS(=O)(=O)c2ccc(Cl)cc2)cc1 |
| 155 to 156 | CS(=O)(=O)c1ccc(-c2oc(C(c3ccccc3)c3ccccc3)nc2-c2ccc(F)cc2)cc1 |
| 117 to 118 | C#CCn1c(=O)c2ccccc2c(=O)c2ccccc21 |
| 204 to 207 | COc1cc2cc(CO)c(CO)c(-c3ccnc(Nc4ccccc4C(CO)CCO)c3)c2cc1OC (configuration not stated) |
| 162 to 163 | Cn1cc(-c2ccc(O)cc2)c(=O)c(-c2cccc(C(F)(F)F)c2)c1 |
| 124 to 125 | O=C(C=Cc1c(Cl)cccc1Cl)c1c(Cl)cccc1Cl |
| 115 to 116 | CCCn1nnc(-c2cnc3ccccn3c2=O)n1 |
| 105 to 106 | O=C1c2ccccc2COc2cc(Cl)ccc21 |
| 148 to 149 | CCOc1cc(/C(=C\C#N)c2ccc(NC(=O)OC)c(OC)c2)ccc1OC |
| 256 to 257 | O=c1nc(-c2ccccn2)sc2cccc(F)c12 |
| 225 | Nc1ccncc1NC(=S)NCCN1CCC(Nc2nc3ccccc3n2Cc2ccc(F)cc2)C1 (configuration not stated) |
| 78 to 84 | CCCCc1oc2ccccc2c1C(=O)N(CC)Cc1ccc2cc(OCc3nnn[nH]3)ccc2c1 |
| > 260 | COc1nc(Cl)nc(NC#N)n1 |
| 215 to 217 | Cc1nc(-n2[nH]c(C)c(Cc3ccc(Cl)cc3)c2=O)sc1C(=O)NCc1cccnc1 |
| 283 | COc1cc2c(-c3cc4cc(F)cnc4[nH]3)cn(C)c2cc1OC |

| melting point [°C] | Compound |
| --- | --- |
| 100 to 103 | COc1cccc(C(=NO)c2sccc2Br)c1 |
| 212 to 213 | Cc1nnc(-c2ccc3ncn(-c4cccc(C(F)(F)F)c4)c3c2)o1 |
| 115 to 116 | OCc1cc2cc(-c3ccccc3)ccc2[nH]1 |
| 131 to 132 | CCN(CC)CCNc1nc2cccnc2n(-c2ccc(C)cc2)c1=O |
| 194 to 195 | Cc1oc(-c2ccccc2)nc1COc1ccc(Cn2cc(C(=O)O)c(C(C)C)n2)cc1 |
| 208 to 210 | Clc1nnccc1-c1c(-c2ccccc2)nn2ccccc12 |
| > 300 | CC1(C)Nc2ncc(I)cc2NC1=O |
| 126 to 127 | COCOc1ccc(C=CC(=O)c2c(OC)cc(OC)c(CC=C(C)C)c2O)cc1OC |
| 82 | OCCCOc1cccc2sccc12 |
| 52 to 58 | Cc1noc(NS(=O)(=O)c2ccccc2-c2ccc(C(F)(F)C(C)C)cc2)c1C |
| 163 to 165 | CCCCOc1ccccc1-c1ncc(C(=O)O)c(=O)[nH]1 |
| 118 | CCCCOc1ccc(S(=O)(=O)C2(C(=O)NO)CCN(Cc3ccccn3)CC2)cc1 |
| 155 to 158 | O=c1ccc(-c2ccc(OCCCN3CCCCC3)nc2)n[nH]1 |
| 171 to 172 | O=C1C=C(NC2CCN(Cc3ccccc3)CC2)CCC1 |
| 69 to 71 | COC(OC)c1cc(C)nc(N)n1 |
| 90.3 to 94.8 | CCc1cccc2c(-c3nc(OC)cc(OC)n3)c(C)[nH]c12 |
| 160 | COc1ccc(CN(C)CCCc2ccc(NC(=O)c3cccc4c(=O)c5cc(F)ccc5sc34)cc2)cc1OC |
| 100 to 105 | CC(=O)OC[C@H]1O[C@@H](Cn2ccc(=S)[nH]c2=O)[C@@H](OC(C)=O)[C@@H]1OC(C)=O |
